# Reference: patent publication US12577227B2, “WDR5 inhibitors and modulators” (Vanderbilt University, priority 2019, dated 2026)
# Tested on: MV4:11 human cancer cell lines
# Assay: Cellular viability / anti-proliferative activity (CellTiter-Glo)
# Type: cell-based
# Conditions: MV4-11, 120 h, MV-4-11 cells, 5 day protocol, mean of minimum two replicates, read-out: GI50 on cellular proliferation of MV4:11 human cancer cell lines
# Description: Cellular Viability of Human Tumor Cell Lines
# Anti-Proliferative Activity Using MLL-Harboring Cell Lines.
# MV-4-11 and K562 cells are grown in IMDM media supplemented with 10% FBS and […], Molm-13 cells are cultured in RPMI-1640 media supplemented with 10% FBS and 1% o penicillin/streptomycin. Viability assays are performed by dispensing 200 cells at 7200 cells/mL into each well of an opaque 384-well plate and adding compounds at the indicated concentrations in a final volume of 32 μL and a final concentration of DMSO of 0.3% for all samples. A certain range of compound concentrations is made through a series of 2-fold dilutions starting 30 μM at the highest, total 22 dilutions. After a set incubation period, 5 day protocol, the viability of cells in each well is assessed using the CellTiter-Glo assay (Promega), read on a 96 Microplane Luminometer (Cytation 3, BioTek). Serial dilutions of each cell type are performed in all assays to generate standard curves and the final densities of cells are determined within the dynamic range of the instrument. GI50 values are calculated based on XLfit software (IDBS, Guildford, UK) with Sigmoidal Dose-Response Model. Each compound is tested in minimum of two replicates. Data are expressed as mean.
row,Compound,GI50 [µM]
1,"COc1cc(OC)c2nc(C)cc(N3CCOc4c(cc(Cn5ccnc5)cc4-c4cn(C)nc4C(F)(F)F)C3=O)c2c1 [Example 69, 7-((1H-imidazol-1-yl)methyl)-4-(6,8-dimethoxy-2-methylquinolin-4-yl)-9-(1-methyl-3-(trifluoromethyl)-1H-pyrazol-4-yl)-3,4-dihydrobenzo[f][1,4]oxazepin-5(2H)-one]",0.039
2,"Cc1cc(C)nc(CN2CCOc3c(cc(Cn4ccnc4C)cc3-c3cc(C)c(F)cc3C)C2=O)c1 [Example 51, 4-((4,6-Dimethylpyridin-2-yl)methyl)-9-(4-fluoro-2,5-dimethylphenyl)-7-((2-methyl-1H-imidazol-1-yl)methyl)-3,4-dihydrobenzo[f][1,4]oxazepin-5(2H)-one]",0.079
3,"CCc1cc(OC)c2nccc(N3CCOc4c(cc(Cn5ccnc5)cc4-c4cn(C)nc4C(F)(F)F)C3=O)c2c1 [Example 67, 7-((1H-imidazol-1-yl)methyl)-4-(6-ethyl-8-methoxyquinolin-4-yl)-9-(1-methyl-3-(trifluoromethyl)-1H-pyrazol-4-yl)-3,4-dihydrobenzo[f][1,4]oxazepin-5(2H)-one]",0.321
4,"COc1cc(CN2CCOc3c(cc(CNc4ccccn4)cc3-c3ccc(F)cc3C)C2=O)cc(OC)c1 [Example 10, 4-(3,5-Dimethoxybenzyl)-9-(4-fluoro-2-methylphenyl)-7-((pyridin-2-ylamino)methyl)-3,4-dihydrobenzo[f][1,4]oxazepin-5(2H)-one]",> 0.94
5,"Cc1ccnc(CN2CCOc3c(cc(Cn4ccnc4C)cc3-c3cn(C)nc3C(F)(F)F)C2=O)c1 [Example 27, 7-((2-Methyl-1H-imidazol-1-yl)methyl)-9-(1-methyl-3-(trifluoromethyl)-1H-pyrazol-4-yl)-4-((4-methylpyridin-2-yl)methyl)-3,4-dihydrobenzo[f][1,4]oxazepin-5(2H)-one]",0.192
6,"Cc1cc(C)nc(CN2CCOc3c(cc(Cn4ccnc4C)cc3-c3cc(C)ccc3C)C2=O)c1 [Example 49, 9-(2,5-Dimethylphenyl)-4-((4,6-dimethylpyridin-2-yl)methyl)-7-((2-methyl-1H-imidazol-1-yl)methyl)-3,4-dihydrobenzo[f][1,4]oxazepin-5(2H)-one]",0.045
7,"COc1cc(Cn2cnc3c(-c4ccc(F)cc4C)cc(Cn4ccoc4=N)cc3c2=O)cc(OC)c1 [Example 19, 3-(3,5-Dimethoxybenzyl)-8-(4-fluoro-2-methylphenyl)-6-((2-iminooxazol-3(2H)-yl)methyl)quinazolin-4(3H)-one]",7.98
8,"COc1ccnc([C@H](C)N2CCOc3c(cc(Cn4cnn(C)c4=N)cc3-c3cn(C)nc3C(F)(F)F)C2=O)c1 [Example 53, (S)-7-((5-Imino-1-methyl-1,5-dihydro-4H-1,2,4-triazol-4-yl)methyl)-4-(1-(4-methoxypyridin-2-yl)ethyl)-9-(1-methyl-3-(trifluoromethyl)-1H-pyrazol-4-yl)-3,4-dihydrobenzo[f][1,4]oxazepin-5(2H)-one]",0.067
9,"COc1cc(Cn2cnc3c(-c4ccc(F)cc4C)cc(Cn4ccc5cccnc54)cc3c2=O)cc(OC)c1 [Example 5, 6-((1H-Pyrrolo[2,3-b]pyridin-1-yl)methyl)-3-(3,5-dimethoxybenzyl)-8-(4-fluoro-2-methylphenyl)quinazolin-4(3H)-one]",> 0.94
10,"COc1cc(CN2CCOc3c(cc(Cn4ccoc4=N)cc3-c3ccc(F)cc3C)C2=O)cc(OC)c1 [Example 9, 4-(3,5-Dimethoxybenzyl)-9-(4-fluoro-2-methylphenyl)-7-((2-iminooxazol-3(2H)-yl)methyl)-3,4-dihydrobenzo[f][1,4]oxazepin-5(2H)-one]",0.259
11,"COc1cc(CN2CCNc3c(cc(Cn4ccn(C)c4=N)cc3-c3ccc(F)cc3C)C2=O)cc(OC)c1 [Example 29, 4-(3,5-Dimethoxybenzyl)-9-(4-fluoro-2-methylphenyl)-7-((2-imino-3-methyl-2,3-dihydro-1H-imidazol-1-yl)methyl)-1,2,3,4-tetrahydro-5H-benzo[e][1,4]diazepin-5-one]",0.038
12,"CCc1cc(C(=O)NCCOC)c2nccc(N3CCOc4c(cc(Cn5ccnc5)cc4-c4cn(C)nc4C(F)(F)F)C3=O)c2c1 [Example 74, 4-(7-((1H-imidazol-1-yl)methyl)-9-(1-methyl-3-(trifluoromethyl)-1H-pyrazol-4-yl)-5-oxo-2,3-dihydrobenzo[f][1,4]oxazepin-4(5H)-yl)-6-ethyl-N-(2-methoxyethyl)quinoline-8-carboxamide]",0.458
13,"Cc1cc(C)nc(CN2CCOc3c(cc(Cn4ccnc4C)cc3-c3cccnc3C)C2=O)c1 [Example 44, 4-((4,6-Dimethylpyridin-2-yl)methyl)-7-((2-methyl-1H-imidazol-1-yl)methyl)-9-(2-methylpyridin-3-yl)-3,4-dihydrobenzo[f][1,4]oxazepin-5(2H)-one]",0.548
14,"Cc1ccnc(CN2CCOc3c(cc(Cn4cnn(C)c4=N)cc3-c3cn(C)nc3C(F)(F)F)C2=O)c1 [Example 32, 7-((5-imino-1-methyl-1,5-dihydro-4H-1,2,4-triazol-4-yl)methyl)-9-(1-methyl-3-(trifluoromethyl)-1H-pyrazol-4-yl)-4-((4-methylpyridin-2-yl)methyl)-3,4-dihydrobenzo[f][1,4]oxazepin-5(2H)-one]",0.775
15,"CCn1cc(-c2cc(Cn3ccnc3)cc3c2NC(=O)CN([C@H](c2cc(OC)ccn2)C2CC2)C3=O)c(C(F)(F)F)n1 [Example 65, (S)-7-((1H-imidazol-1-yl)methyl)-4-(cyclopropyl(4-methoxypyridin-2-yl)methyl)-9-(1-ethyl-3-(trifluoromethyl)-1H-pyrazol-4-yl)-3,4-dihydro-1H-benzo[e][1,4]diazepine-2,5-dione]",0.29
16,"CCn1cc(-c2cc(Cn3ccnc3)cc3c(=O)n([C@H](c4cc(OC)ccn4)C4CC4)cnc23)c(C(F)(F)F)n1 [Example 62, (S)-6-((1H-imidazol-1-yl)methyl)-3-(cyclopropyl(4-methoxypyridin-2-yl)methyl)-8-(1-ethyl-3-(trifluoromethyl)-1H-pyrazol-4-yl)quinazolin-4(3H)-one]",1.38
17,"COc1cc(CN2CCOc3c(cc(Cn4ccccc4=N)cc3-c3ccc(F)cc3C)C2=O)cc(OC)c1 [Example 8, 4-(3,5-Dimethoxybenzyl)-9-(4-fluoro-2-methylphenyl)-7-((2-iminopyridin-1(2H)-yl)methyl)-3,4-dihydrobenzo[f][1,4]oxazepin-5(2H)-one]",0.355
18,"CCc1cc(C(=O)NC)c2nccc(N3CCOc4c(cc(Cn5ccnc5)cc4-c4cn(C)nc4C(F)(F)F)C3=O)c2c1 [Example 72, 4-(7-((1H-imidazol-1-yl)methyl)-9-(1-methyl-3-(trifluoromethyl)-1H-pyrazol-4-yl)-5-oxo-2,3-dihydrobenzo[f][1,4]oxazepin-4(5H)-yl)-6-ethyl-N-methylquinoline-8-carboxamide]",0.494
19,"COc1ccnc(CN2CCOc3c(cc(Cn4ccn(C)c4=N)cc3-c3ccc(F)cc3C)C2=O)c1 [Example 13, 9-(4-Fluoro-2-methylphenyl)-7-((2-imino-3-methyl-2,3-dihydro-1H-imidazol-1-yl)methyl)-4-((4-methoxypyridin-2-yl)methyl)-3,4-dihydrobenzo[f][1,4]oxazepin-5(2H)-one]",0.012
20,"COc1cc(CN2C[C@@H](C)Oc3c(cc(Cn4ccn(C)c4=N)cc3-c3ccc(F)cc3C)C2=O)cc(OC)c1 [Example 33, (R)-4-(3,5-dimethoxybenzyl)-9-(4-fluoro-2-methylphenyl)-7-((2-imino-3-methyl-2,3-dihydro-1H-imidazol-1-yl)methyl)-2-methyl-3,4-dihydrobenzo[f][1,4]oxazepin-5(2H)-one]",0.13
21,"COc1cc(CN2CCOc3c(cc(Cn4cnn(C)c4=N)cc3-c3cn(C)nc3C(F)(F)F)C2=O)cc(OC)c1 [Example 15, 4-(3,5-Dimethoxybenzyl)-7-((5-imino-1-methyl-1,5-dihydro-4H-1,2,4-triazol-4-yl)methyl)-9-(1-methyl-3-(trifluoromethyl)-1H-pyrazol-4-yl)-3,4-dihydrobenzo[f][1,4]oxazepin-5(2H)-one]",0.101
22,"COc1cc(CN2C[C@H](C)Oc3c(cc(Cn4ccnc4C)cc3-c3ccc(F)cc3C)C2=O)cc(OC)c1 [Example 36, (S)-4-(3,5-Dimethoxybenzyl)-9-(4-fluoro-2-methylphenyl)-2-methyl-7-((2-methyl-1H-imidazol-1-yl)methyl)-3,4-dihydrobenzo[f][1,4]oxazepin-5(2H)-one]",2.43
23,"CCn1cc(-c2cc(Cn3ccnc3C)cc3c2OCCN([C@H]2CCOc4ccc(OC)cc42)C3=O)c(C(F)(F)F)n1 [Example 64, (S)-9-(1-ethyl-3-(trifluoromethyl)-1H-pyrazol-4-yl)-4-(6-methoxychroman-4-yl)-7-((2-methyl-1H-imidazol-1-yl)methyl)-3,4-dihydrobenzo[f][1,4]oxazepin-5(2H)-one]",0.039
24,"CCn1cc(-c2cc(Cn3ccnc3)cc3c2OCCN([C@H]2CCOc4ccc(OC)cc42)C3=O)c(C(F)(F)F)n1 [Example 63, (S)-7-((1H-imidazol-1-yl)methyl)-9-(1-ethyl-3-(trifluoromethyl)-1H-pyrazol-4-yl)-4-(6-methoxychroman-4-yl)-3,4-dihydrobenzo[f][1,4]oxazepin-5(2H)-one]",0.07
